Experimental data published in US20250002491A1, “N,N-DIMETHYL-4-(7-(N-(1-METHYLCYCLOPROPYL)SULFAMOYL)-IMIDAZO[1,5-A]PYRIDIN-5-YL)PIPERAZINE-1-CARBOXAMIDE DERIVATIVES AND THE CORRESPONDING PYRAZOLO[1,5-A]PYRIDINE DERIVATIVES AS PARG INHIBITORS FOR THE TREATMENT OF CANCER” (FORX THERAPEUTICS AG, priority 2021, published 2025).
Read-outs that look alike come from different tables or passages of the source.

Experiments:
[1] = tested on: NCIH-460 cells; experiment: Cellular viability assay (Cell Titer-Glo), NCIH-460; type: cell-based; details: Homo sapiens, NCI-H460; NCIH-460 (PARG-inhibition sensitive), 96 hours of incubation; read-out: EC50 in μM determined in NCIH-460 cells as described under Cellular viability assay
Procedure: (§1) NCIH-460 as a PARG-inhibition sensitive cell line and U2OS as PARG-inhibition insensitive cell line were plated at 1000 cells/well and 2000 cells/well, respectively, in 96-well white plates with clear flat bottom. After 24 hours, the compounds were added with the Tecan digital dispenser (D300e), in duplicates. The outer wells of the plate were excluded. After 96 hours of incubation, 150 μl of the growth medium were removed and 50 μl of Cell Titer-Glo (Promega) were added per well. Following an incubation of 10 minutes, luminescence was read using a plate reader (Tecan). Averaged values of the samples were normalized to DMSO treated control samples. Curves were fit as % of the control vs. log of the compound concentration using a 4 parameter log-logistic function: […]

[2] = tested on: U2OS cells; experiment: Cellular viability assay (Cell Titer-Glo), U2OS; type: cell-based; details: Homo sapiens; U2OS (PARG-inhibition insensitive), 96 hours of incubation; read-out: EC50 in μM determined in U2OS cells as described under Cellular viability assay
Procedure: as §1

[3] = target: T1, hPARG (Homo sapiens, UniProt Q86W56, A967T/C963S/D927K/H446G/I916T/L447S/L473S/M841I/N479S/R811K/S802A/S858P/T924D); experiment: PARG enzymatic IC50 assay (absorbance, ADP-ribose-pNP substrate); type: biochemical; details: 2 hours incubation of enzyme with compound; 30 nM hPARG, 800 μM ADP-pNP; read-out: IC50 in μM determined in PARG enzymatic assay (PARG protein and 2 hours incubation)
T1 construct: human PARG (448-976 [H446G, L447S, L473S, N479S); 6His-TwinStrep (protease-cleavable) (N, cleaved yes); host or cells: E. coli BL21 (DE3)
T1 sequence (Q86W56 446-976 H446G/L447S/L473S/N479S/S802A/R811K/M841I/S858P/I916T/T924D/D927K/C963S/A967T): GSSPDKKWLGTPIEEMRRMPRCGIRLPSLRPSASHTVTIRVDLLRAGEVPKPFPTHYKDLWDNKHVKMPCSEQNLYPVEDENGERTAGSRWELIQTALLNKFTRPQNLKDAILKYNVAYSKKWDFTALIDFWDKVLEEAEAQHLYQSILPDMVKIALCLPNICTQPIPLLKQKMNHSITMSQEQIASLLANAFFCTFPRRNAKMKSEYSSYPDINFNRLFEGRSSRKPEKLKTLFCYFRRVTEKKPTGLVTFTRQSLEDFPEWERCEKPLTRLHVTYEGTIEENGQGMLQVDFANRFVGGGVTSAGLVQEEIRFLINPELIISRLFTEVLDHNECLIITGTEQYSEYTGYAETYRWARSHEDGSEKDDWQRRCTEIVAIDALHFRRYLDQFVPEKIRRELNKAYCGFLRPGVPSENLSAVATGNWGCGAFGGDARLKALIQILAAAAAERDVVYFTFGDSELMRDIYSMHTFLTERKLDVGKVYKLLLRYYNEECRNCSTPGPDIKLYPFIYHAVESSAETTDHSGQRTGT
Procedure: A codon optimized gene encoding human PARG (448-976 [H446G, L447S, L473S, N479S, S802A, R811K, M841I, S858P, 1916T, T924D, D927K, C963S, A967T]) was synthesized by Genscript, and cloned into pET15b (Ncol/BamHI) with an N-terminal, Thrombin protease cleavable 6His-TwinStrep tag. Expression of the protein in E. coli BL21 (DE3) was induced by addition of 0.2 mM IPTG to a shake flask culture grown to OD600=0.8 at 37° C. Growth was allowed to continue at 30° C. for a further 20 hours before harvesting by centrifugation and storage of the cell pellet at −80° C.
Protein was purified by IMAC and SEC: frozen cell pellets (typically 40 g wet weight) were resuspended by homogenization in 5 volumes buffer A (25 mM Tris/HCl pH 8.0, 200 mM NaCl, 2 mM DTT), supplemented with 1 mg of DNase I from bovine pancreas (Sigma-Aldrich) and protease inhibitors (Roche Complete™ EDTA-free protease inhibitor tablet), and lysed by passage through a Constant Systems BasicZ homogenizer. The lysate was clarified by centrifugation for 60 minutes at 25,000 g, 4° C., and the lysate supernatant was loaded onto 5 ml StrepTrap HP (Cytiva) pre-equilibrated with buffer A. The column was washed with buffer A (˜10 CV), then buffer B containing 1M KCl (˜5 CV), and then the protein was eluted with buffer A containing 2.5 mM d-Desthiobiotin. Pooled fractions containing 6HisTwinStrep-TEV-hPARG were incubated with TEV protease overnight at 4° C. hPARG was separated from uncleaved material and Thrombin protease through gel filtration with Superdex75 sizing column (GE Healthcare) pre-equilibrated with SEC buffer (15 mM Tris/HCl pH 8.5, 100 mM NaCl, 2 mM DTT). Pooled fractions containing pure hPARG were concentrated using a 10 k MWCO spin concentrator (VivaSpin) to 10 mg/mL, and then either used immediately for crystallisation or snap-frozen in liquid nitrogen for storage at −80° C.
PARG Enzymatic IC50 Assay
PARG enzyme as incubated with compound or vehicle (DMSO) for 15 minutes or 2 hours in a 384 well plate. After adding the PARG substrate ADP-ribose-pNP, the plate was read for absorbance intensity at 405 nm. The vehicle (DMSO) with high absorbance intensity represents no inhibition of enzymatic reaction while the low control (no enzyme) with low absorbance intensity represents full inhibition of enzymatic reaction.
• hPARG: Peak Protein, 30 nM • Substrate: ADP-pNP, 800 μM, Jena Bioscience catalog #NU-955 • Reaction time: 60 minutes • Assay buffer: 50 mM Tris-HCl pH 8.0, 100 mM NaCl, 2 mM DTT • Temperature: 30° C. • Total volume: 30 μL
• 0% inhibition control: DMSO • 100% inhibition control: No enzyme
The protocol that was used for enzyme reaction and detection is as follows: • 1. Transfer 100 nL of the final concentration of test compounds or vehicle (DMSO) to the appropriate wells of a microtiter plate. • 2. Centrifuge the plate at 1000 rpm for 1 minute. • 3. Transfer 14.6 μL of 2× final concentration of enzyme in assay buffer or assay buffer alone to the appropriate wells. • 4. Centrifuge the plate at 1000 rpm for 1 minute. • 5. Incubate the plate at room temperature for 15 minutes or 2 hours. • 6. Transfer 15.4 μL of 2× substrate in assay buffer to all the test wells. • 7. Centrifuge the plate at 1000 rpm for 1 minute. • 8. Read the plate on a plate reader (e.g., Spark Tecan).

[4] = tested on: PARG in U2OS cells; experiment: Cellular PAR chain assay (flow cytometry, PAR chain positive cells); type: cell-based; details: 1 hour compound pretreatment
Procedure: The ability of compounds to inhibit PARG in response to DNA damage, was assessed with U2OS cells pretreated with the compounds for 1 hour, following a 1-hour treatment with or without the DNA alkylating agent temozolomide (TMZ). […] The cells were incubated for 2 hours at room temperature with a mouse monoclonal antibody against poly (ADP) ribose (PAR) polymer. The cells were washed and incubated with an anti-mouse Alexa-488 conjugated secondary antibody for 1 hour at room temperature. Propidium iodide staining was used to determine DNA content in the cells (staining at 4° C. overnight). The fluorescence intensity of the cells was assessed by flow cytometry (Cytoflex from Beckmann) and the percentage of PAR chain positive cells (gated in relation to TMZ+DMSO treated control) was determined. PAR chain positive cells % were fit against the concentration of the compound using a 4 parameter log-logistic function, generating PAR chain EC50 values: […]

[5] = without TMZ, read-out: EC50 in μM determined in cellular assay as described under Cellular PAR chain assay (conditions without treatment of TMZ)
[6] = Homo sapiens, then 1-hour treatment with TMZ, read-out: EC50 in μM determined in cellular assay as described under Cellular PAR chain assay (conditions with treatment of TMZ)

SMILES | EC50 [2] | IC50 [3] | EC50 [4, 5] | EC50 [4, 6] | EC50 [1]
CN(C)C(=O)N1CCN(c2cc(S(=O)(=O)NC3(C)CC3)cc3c(-c4ccc(C(F)F)nc4)ncn23)CC1 [Example 3, 4-(1-(6-(difluoromethyl)pyridin-3-yl)-7-(N-(1-methylcyclopropyl)sulfamoyl)imidazo[1,5-a]pyridin-5-yl)-N,N-dimethylpiperazine-1-carboxamide] | > 20 µM | 0.066 µM | > 10 µM | 0.218 µM | 4.47 µM
CN(C)C(=O)N1CCN(c2cc(S(=O)(=O)NC3(C)CC3)cc3c(-c4nnc(C(F)F)s4)cnn23)CC1 [Example 10, 4-(3-(5-(difluoromethyl)-1,3,4-thiadiazol-2-yl)-5-(N-(1-methylcyclopropyl)sulfamoyl)pyrazolo[1,5-a]pyridin-7-yl)-N,N-dimethylpiperazine-1-carboxamide] | > 20 µM | 0.042 µM | > 10 µM | 0.266 µM | 1.3 µM
Cc1ccc(-c2cnn3c(N4CCN(C(=O)N(C)C)CC4)cc(S(=O)(=O)NC4(C)CC4)cc23)cn1 [Example 5, N,N-dimethyl-4-(5-(N-(1-methylcyclopropyl)sulfamoyl)-3-(6-methylpyridin-3-yl)pyrazolo[1,5-a]pyridin-7-yl)piperazine-1-carboxamide] | > 20 µM | 0.054 µM | > 10 µM | 0.223 µM | 3.22 µM
CN(C)C(=O)N1CCN(c2cc(S(=O)(=O)NC3(C)CC3)cc3c(-c4nnc(C(F)F)o4)cnn23)CC1 [Example 11, 4-(3-(5-(difluoromethyl)-1,3,4-oxadiazol-2-yl)-5-(N-(1-methylcyclopropyl)sulfamoyl)pyrazolo[1,5-a]pyridin-7-yl)-N,N-dimethylpiperazine-1-carboxamide] | > 20 µM | 0.098 µM | > 10 µM | 0.739 µM | 4.58 µM

Further lines, with some results ahead:

EC50 [2] | IC50 [3] | EC50 [4, 5] | EC50 [4, 6] | SMILES | EC50 [1]
> 16.8 µM | 0.064 µM | > 10 µM | 1.1 µM | Cc1ccc(-c2ncn3c(N4CCN(C(=O)N(C)C)CC4)cc(S(=O)(=O)NC4(C)CC4)cc23)cn1 [Example 1, N,N-dimethyl-4-(7-(N-(1-methylcyclopropyl)sulfamoyl)-1-(6-methylpyridin-3-yl)imidazo[1,5-a]pyridin-5-yl)piperazine-1-carboxamide] | 13.4 µM
> 20 µM | 0.028 µM | > 10 µM | 0.328 µM | CN(C)C(=O)N1CCN(c2cc(S(=O)(=O)NC3(C)CC3)cc3c(-c4ccc(C(F)F)nc4)cnn23)CC1 [Example 7, 4-(3-(6-(difluoromethyl)pyridin-3-yl)-5-(N-(1-methylcyclopropyl)sulfamoyl)pyrazolo[1,5-a]pyridin-7-yl)-N,N-dimethylpiperazine-1-carboxamide] | 3.94 µM
> 20 µM | 0.043 µM |  |  | COC(=O)c1cnn2c(N3CCN(C(=O)N(C)C)CC3)cc(S(=O)(=O)NC3(C)CC3)cc12 [Example 8, Methyl 7-(4-(dimethylcarbamoyl)piperazin-1-yl)-5-(N-(1-methylcyclopropyl)sulfamoyl)pyrazolo[1,5-a]pyridine-3-carboxylate] | 7.22 µM
> 20 µM | 0.038 µM | > 10 µM | 1.49 µM | Cc1nnc(-c2cnn3c(N4CCN(C(=O)N(C)C)CC4)cc(S(=O)(=O)NC4(C)CC4)cc23)s1 [Example 12, N,N-dimethyl-4-(3-(5-methyl-1,3,4-thiadiazol-2-yl)-5-(N-(1-methylcyclopropyl)sulfamoyl)pyrazolo[1,5-a]pyridin-7-yl)piperazine-1-carboxamide] | 6.05 µM
